Results on 8 compounds are retold here after ChEMBL document CHEMBL1201862, “PubChem BioAssay data set” (2004).

As a reminder, the IC50 is the midpoint of a concentration-inhibition curve. The AC50 is the midpoint of the concentration-response curve, whichever way the signal moves. What is called EC50 is the concentration that produces a half-maximal response. For orientation: CC50 means the concentration that lowers cell viability or growth by half.

The target in one assay is Nonstructural protein 1 (Influenza A virus, UniProt Q194T2). It is filed as functional, Influenza A virus (A/California/07/2009(H1N1)).
Nonstructural protein 1, sequence (Q194T2 whole entry): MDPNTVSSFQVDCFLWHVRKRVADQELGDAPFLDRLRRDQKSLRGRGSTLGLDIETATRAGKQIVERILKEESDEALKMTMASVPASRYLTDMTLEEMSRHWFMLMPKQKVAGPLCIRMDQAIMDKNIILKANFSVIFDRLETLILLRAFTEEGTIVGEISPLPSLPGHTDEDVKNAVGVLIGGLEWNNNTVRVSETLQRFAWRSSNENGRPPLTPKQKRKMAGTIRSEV
Assay [1] is described as follows: HeLa cell cytotoxicity, dose response, cytotoxicity control, CellTiter-Glo luminescence, dry powder, set 2 (AID 720593). Format: functional, cell-based.
Assay [2] can be described thus: Late stage assay provider results from the probe development effort to identify selective inhibitors of heat shock protein 90 (HSP90): Absorbance-based cell proliferation assay in MCF7 cells. Format: functional.
A short description of assay [3]: Late stage assay provider results from the probe development effort to identify selective inhibitors of heat shock protein 90 (HSP90): Absorbance-based cell proliferation assay in SKBR3 cells. It is filed as functional. To be noted: SK-BR-3.
In assay [4] the target is Matrix metalloproteinase-14 (Homo sapiens, UniProt P50281). Description: SAR confirmation of uHTS hits for a small molecule inhibitors of MT1-MMP activation in a fluorescence assay. It is filed as functional.
The nature of assay [5]: inhibitors of TNFa-stimulated NF-kB luciferase reporter, dose response, selectivity assay for EBV LMP1 NF-kB inhibitor project, HEK293 LMP1 reporter cells, dry powder, set 2 (AID 624369). Format: functional. (In general: Reporter assays use an easily measured gene product as a stand-in for the process of interest.)
Assay [6] concerns Streptococcus sp. 'group A'. Description: growth inhibition of control SK(-) GAS strain, dose response, counter-screen for streptokinase expression inhibitor project, luminescence, kanamycin, BacTiterGlo, confirmation (AID 1900). It is filed as functional, organism-based. (In general: Counterscreens check selectivity or assay interference.)
Assay [7] relates to Vero. In words: cells. Format: functional. The settings on record: Chlorocebus sabaeus.
Assay [8] in a line: human group III sPLA2 inhibitors, dose response, biochemical, QFRET, IC50 (AID 743457).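 Further: green fluorescence rise as the enzyme cleaves BODIPY PC-A2 in liposomes; potency for inhibition of the enzyme.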
The subject of the next assay is Streptococcus. Description: Group A Streptococcus viability loss, dose response, counter-screen for streptokinase expression inhibitor project, luminescence, BacTiterGlo (AID 1915).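 Further: potency for reduction of bacterial viability or growth.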 Format: functional, organism-based.
For a further assay, the system named is A549. Description: A549 cell toxicity, dose response, cytotoxicity control, plate reader, cherry-pick samples (AID 687028). To be noted: Homo sapiens. It is filed as functional, cell-based.
For assay [9], the system named is Vero. In words: Vero cell toxicity, dose response, cytotoxicity control, plate reader, cherry-pick samples (AID 687020). Format: functional, cell-based. To be noted: Chlorocebus sabaeus.
A short description of assay [10]: non-specific cell cytotoxicity, dose response, cytotoxicity control for PAX8 inhibitor project, plate reader, dry powder samples (AID 743021). It is filed as functional, cell-based.
The next assay deals with Paired box protein Pax-8 (Homo sapiens, UniProt Q06710). Description: inhibitors of PAX8-driven TPO luciferase reporter, dose response, RMG-I cells, cherry-pick (AID 687027).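 Further: luciferase reporter driven by Pax8 target thyroperoxidase promoter measured by SteadyGlo luminescence.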 It is filed as functional, cell-based.
Paired box protein Pax-8, sequence (Q06710 whole entry, the tested form may be a part): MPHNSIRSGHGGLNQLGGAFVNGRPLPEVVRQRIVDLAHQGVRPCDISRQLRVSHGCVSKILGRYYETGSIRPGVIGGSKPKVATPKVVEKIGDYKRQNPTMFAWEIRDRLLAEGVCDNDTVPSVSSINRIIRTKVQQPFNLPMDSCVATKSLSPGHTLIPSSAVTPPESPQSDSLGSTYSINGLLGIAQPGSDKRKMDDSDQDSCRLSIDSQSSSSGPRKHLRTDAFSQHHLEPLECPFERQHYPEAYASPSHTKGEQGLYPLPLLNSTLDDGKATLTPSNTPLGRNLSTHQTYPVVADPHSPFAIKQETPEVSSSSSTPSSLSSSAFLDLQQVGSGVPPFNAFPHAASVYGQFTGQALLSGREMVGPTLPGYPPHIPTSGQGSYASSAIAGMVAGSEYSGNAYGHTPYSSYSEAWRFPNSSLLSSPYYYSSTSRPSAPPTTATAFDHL
Another assay addresses Fatty acid synthase (Homo sapiens, UniProt P49327). Description: FAS thioesterase domain inhibitors, SAR follow-up, biochemical, endpoint fluorescence intensity, powder samples (AID 652164). It is filed as functional.

Molecules are shown by their SMILES. Calls of active or inactive are those of the source.

Fatty acid synthase, sequence (P49327 whole entry, the tested form may be a part): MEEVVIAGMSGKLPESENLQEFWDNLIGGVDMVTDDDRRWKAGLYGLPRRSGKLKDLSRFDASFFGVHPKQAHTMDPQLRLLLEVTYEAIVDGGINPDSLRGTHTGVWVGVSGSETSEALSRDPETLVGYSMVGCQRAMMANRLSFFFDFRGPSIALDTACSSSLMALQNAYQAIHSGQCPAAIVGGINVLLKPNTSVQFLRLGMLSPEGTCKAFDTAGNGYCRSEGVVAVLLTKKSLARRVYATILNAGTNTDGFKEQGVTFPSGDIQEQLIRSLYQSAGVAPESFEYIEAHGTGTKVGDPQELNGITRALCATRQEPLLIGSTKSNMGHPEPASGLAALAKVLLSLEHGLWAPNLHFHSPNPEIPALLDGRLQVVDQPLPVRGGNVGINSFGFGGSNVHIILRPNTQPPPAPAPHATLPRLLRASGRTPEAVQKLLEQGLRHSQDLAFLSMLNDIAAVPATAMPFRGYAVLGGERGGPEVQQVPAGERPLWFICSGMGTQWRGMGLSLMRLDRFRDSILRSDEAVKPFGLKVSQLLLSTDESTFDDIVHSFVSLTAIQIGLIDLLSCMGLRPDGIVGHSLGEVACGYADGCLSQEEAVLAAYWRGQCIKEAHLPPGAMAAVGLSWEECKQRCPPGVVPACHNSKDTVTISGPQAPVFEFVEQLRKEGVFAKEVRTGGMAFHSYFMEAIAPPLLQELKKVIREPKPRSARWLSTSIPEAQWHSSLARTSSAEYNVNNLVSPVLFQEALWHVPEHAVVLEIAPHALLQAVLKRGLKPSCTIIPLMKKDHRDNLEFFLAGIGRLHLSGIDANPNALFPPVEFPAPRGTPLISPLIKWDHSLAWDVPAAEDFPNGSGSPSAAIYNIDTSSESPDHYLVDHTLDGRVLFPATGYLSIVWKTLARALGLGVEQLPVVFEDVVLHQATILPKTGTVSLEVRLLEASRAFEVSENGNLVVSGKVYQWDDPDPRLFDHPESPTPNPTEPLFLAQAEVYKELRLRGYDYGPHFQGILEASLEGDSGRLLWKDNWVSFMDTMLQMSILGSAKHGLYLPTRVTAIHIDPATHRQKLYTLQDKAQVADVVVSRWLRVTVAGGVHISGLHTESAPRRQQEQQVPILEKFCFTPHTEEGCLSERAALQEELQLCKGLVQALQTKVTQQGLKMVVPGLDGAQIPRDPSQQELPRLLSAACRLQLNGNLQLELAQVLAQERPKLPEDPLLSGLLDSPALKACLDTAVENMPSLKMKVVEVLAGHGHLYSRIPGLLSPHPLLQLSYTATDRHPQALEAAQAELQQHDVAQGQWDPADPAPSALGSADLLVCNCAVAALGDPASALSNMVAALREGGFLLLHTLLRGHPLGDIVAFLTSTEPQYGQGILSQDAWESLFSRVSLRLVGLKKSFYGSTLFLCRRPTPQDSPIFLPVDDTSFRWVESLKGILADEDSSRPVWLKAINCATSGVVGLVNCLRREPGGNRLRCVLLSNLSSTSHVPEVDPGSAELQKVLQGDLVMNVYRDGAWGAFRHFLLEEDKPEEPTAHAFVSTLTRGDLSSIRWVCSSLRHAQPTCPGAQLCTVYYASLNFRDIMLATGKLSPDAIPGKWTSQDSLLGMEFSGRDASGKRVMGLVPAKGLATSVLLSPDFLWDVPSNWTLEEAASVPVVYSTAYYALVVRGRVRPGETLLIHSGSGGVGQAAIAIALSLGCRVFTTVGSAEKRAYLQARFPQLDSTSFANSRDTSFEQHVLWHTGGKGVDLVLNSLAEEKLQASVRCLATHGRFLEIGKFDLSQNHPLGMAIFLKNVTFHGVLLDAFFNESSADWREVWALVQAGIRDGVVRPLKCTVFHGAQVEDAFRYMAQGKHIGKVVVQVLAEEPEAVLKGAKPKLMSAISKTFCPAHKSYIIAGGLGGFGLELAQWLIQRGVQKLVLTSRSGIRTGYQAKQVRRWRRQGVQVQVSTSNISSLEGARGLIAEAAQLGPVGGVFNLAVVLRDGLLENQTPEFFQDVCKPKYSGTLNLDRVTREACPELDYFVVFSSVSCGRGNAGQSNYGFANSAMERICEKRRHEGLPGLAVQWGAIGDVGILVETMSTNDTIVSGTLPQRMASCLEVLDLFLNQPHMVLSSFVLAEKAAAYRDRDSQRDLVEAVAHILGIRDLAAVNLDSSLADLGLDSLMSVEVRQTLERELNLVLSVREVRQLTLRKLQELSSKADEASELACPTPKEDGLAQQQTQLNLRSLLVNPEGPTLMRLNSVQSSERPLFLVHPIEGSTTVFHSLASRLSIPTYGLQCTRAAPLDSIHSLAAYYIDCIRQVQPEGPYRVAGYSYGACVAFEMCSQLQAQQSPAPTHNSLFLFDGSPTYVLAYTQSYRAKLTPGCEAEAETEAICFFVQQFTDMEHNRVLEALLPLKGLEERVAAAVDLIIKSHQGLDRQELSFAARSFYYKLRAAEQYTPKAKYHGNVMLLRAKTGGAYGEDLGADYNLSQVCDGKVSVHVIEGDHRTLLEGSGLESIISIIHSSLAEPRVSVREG

For `c1ccc(-c2n[nH]c(-c3ccncc3)n2)nc1`, the IC50 on Nonstructural protein 1 is 9.19 µM (active). Further, the AC50 in assay [1] was > 52 µM (inactive).
Consider `O=C(Nc1ccccc1I)c1coc(=O)c(Br)c1`, for which the IC50 in [2] was 29.4 µM (inactive); in assay [3], 45.3 µM (inactive).
As to `CN1/C(=C/C=C/c2n(C)c3cc([N+](=O)[O-])c([N+](=O)[O-])cc3[n+]2C)C(C)(C)c2ccccc21`, in [4], the IC50 was 6.88 µM (active).
In assay [5], `O=C(C[C@@H]1C[C@H]2c3cc(NC(=O)c4ccc5c(c4)OCO5)ccc3O[C@H]2[C@H](CO)O1)NC1CCCCC1` showed an AbsAC35 of 166.85 µM.
In the case of `COc1ccc(C(=O)NC(=S)NNC(=O)[C@H]2C[C@@H]2c2ccccc2)cc1OC`, the half-maximal effective concentration (EC50) in assay [6] was 1.36 µM (active); in the assay with Streptococcus, 3.19 µM (active). In the assay with Vero [7], the 50% cytotoxic concentration (CC50) was > 25 µM (active). The IC50 in [8] was 65.8 µM (inactive).
For `Nc1nc2ccccc2n1Cc1ccc(Cl)c(Cl)c1`, the values for the AC50 with A549 and in the assay on Vero [9] were 2.82 µM (active) and 1.28 µM (active), respectively.
Take `COC(=O)C1C=CC(OC2OC(COC(C)=O)C(OC(C)=O)C(OC(C)=O)C2OC(C)=O)n2c(=O)n(-c3ccccc3)c(=O)n21` (stereo not given): the concentration at half-maximal activity (AC50) in assay [10] is 40 µM (active); at Paired box protein Pax-8 it was 3.41 µM (active).
As to `CCC(=O)Nc1nc(-c2ccc(S(=O)(=O)N3CCC(C)CC3)cc2)cs1`, the IC50 at Fatty acid synthase is > 80 µM (inactive).
